Measurements taken from PubChem BioAssay AID2060498 (Molecular Pharmacology Branch, DTP, NCI, 2025).

Tested on: 171881-019-R-J1-PDC tumor spheroids, viability
Test: Anticancer human tumor 171881-019-R-J1-PDC patient-derived invasive breast carcinoma cell line growth inhibition [GQUAD]
Settings: spheroids with HUVEC and MSC; for IC50: curve of first compound; for viability, T/C: stronger effect = lower value
Excerpt: DNA G-quadruplex Stabilizer Agents in Combinations in Complex Spheroids
A high-throughput screen of multi-cell type tumor spheroids was designed to identify active combinations of DNA G-quadruplex stabilizer agents and targeted small molecules. Complex spheroids include a stromal component modeled by human endothelial cells (HUVEC) and fibroblasts modeled by human mesenchymal stem cells (MSCs). The concentration ranges selected for each drug and investigational agent were based upon clinically achievable concentrations if the clinical Cmax of the agent was known.
Compounds. The drugs and investigational agents: pidnarulex (CX-5461; NSC782164), APTO-253 (NSC789042), BRACO-19 (NSC847499), peposertib (NSC802822), ceralasertib (NSC780249), elimusertib (NSC800525), camonsertib (NSC841442), AZD-1390 (NSC803789), olaparib (NSC753686), talazoparib (NSC767125), ART-558 (NSC835418), sotorasib (NSC818433), MRTX-1133 (NSC836407), SN-38 (NSC673596), topotecan (NSC609699), etoposide (NSC141540), doxorubicin (NSC123127), gemcitabine (NSC613327), 5-fluorouracil (NSC19893), paclitaxel (NSC125973), vemurafenib (NSC761431), panobinostat (NSC761190), R-306465 (JNJ-16241199; NSC773264), adavosertib (NSC754352), TP-3654 (NSC805149), carboplatin (NSC241240), KSQ-4279 (NSC840948), and staurosporine (NSC755774) were obtained from the National Cancer Institute (NCI) Developmental Therapeutics Program Chemical Repository (34). The FDA-approved anticancer drug set is available from the NCI Developmental Therapeutics Program. […] The stock solutions were prepared in dimethyl sulfoxide (DMSO, Sigma-Aldrich, St. Louis, MO, cat. D2650) at 800-fold the tested concentration and stored at -70 degrees C prior to their use. All drugs and investigational agents were tested over a range starting from a high concentration at or near the clinical Cmax and decreasing in half-log increments. If the clinical Cmax for an agent had not been determined, the highest concentration tested was 10 microM.
2.3 Cell Culture. All cells were maintained in an incubator at 37 degrees C and 5% CO2 with 95% humidity. The PDC lines were cultured according to standard operating procedures established by the NCI PDMR. All PDCs were thawed and cultured in Matrigel-coated flasks prepared with a working solution of 1X Ham's F-12 nutrient mix, without supplementation (Invitrogen, cat. 11765054), 100 U/mL penicillin-streptomycin (Invitrogen, cat. 15140122), and 2.5% Matrigel (Corning Inc., cat. 354248) for the first three passages. The 857933-349-R-J2-PDC line was cultured in 6C/Colon 1B media, which includes advanced DMEM/F-12 (Thermo Fisher Scientific, cat. 12634028), 10 mM HEPES (Thermo Fisher Scientific, cat. 15630080), 1X GlutaMAX supplement (Thermo Fisher Scientific, cat. 35050061), 0.1 mg/mL primocin (InvivoGen, cat. ant-pm-2), 10% defined fetal bovine serum, heat inactivated (HyClone Laboratories Inc., cat. SH30070.03HI), 50% L-WRN conditioned media (ATCC, cat. CRL-3276), 1.25 mM N-Acetyl-L-cysteine (Sigma-Aldrich, cat. A9165), 10 mM nicotinamide (Sigma-Aldrich, cat. N0636), 1X B-27 supplement (Thermo Fisher Scientific, cat. 17504044), 1X N-2 supplement (Thermo Fisher Scientific, cat. 17502048), 10 microM Y-27632 dihydrochloride (Tocris Bioscience, cat. 1254), and 50 ng/mL human EGF recombinant protein (Thermo Fisher Scientific, cat. PHG0311). The 485176-168-R4-J1-PDC line was cultured in Panc media, which includes all 6C/Colon 1B media components plus 100 ng/mL human FGF-10 (Thermo Fisher Scientific, cat. 100-26), 500 nM SB-431542 (Selleckchem, cat. S1067), and gastrin (Tocris, cat. 3006).
[…]

[1] = second compound 0.0316 µM, first compound 0.0316 µM
[2] = second compound 0.0316 µM, first compound 0.1 µM
[3] = second compound 0.0316 µM, first compound 0.316 µM
[4] = second compound 0.0316 µM, first compound 1 µM
[5] = second compound 0.0316 µM, first compound 3.16 µM
[6] = second compound 0.0316 µM, first compound 10 µM
[7] = second compound 0.1 µM, first compound 0.0316 µM
[8] = second compound 0.1 µM, first compound 0.1 µM
[9] = second compound 0.1 µM, first compound 0.316 µM
[10] = second compound 0.1 µM, first compound 1 µM
[11] = second compound 0.1 µM, first compound 3.16 µM
[12] = second compound 0.1 µM, first compound 10 µM
[13] = second compound 0.316 µM, first compound 0.0316 µM
[14] = second compound 0.316 µM, first compound 0.1 µM
[15] = second compound 0.316 µM, first compound 0.316 µM
[16] = second compound 0.316 µM, first compound 1 µM
[17] = second compound 0.316 µM, first compound 3.16 µM
[18] = second compound 0.316 µM, first compound 10 µM
[19] = second compound 1 µM, first compound 0.0316 µM
[20] = second compound 1 µM, first compound 0.1 µM
[21] = second compound 1 µM, first compound 0.316 µM
[22] = second compound 1 µM, first compound 1 µM
[23] = second compound 1 µM, first compound 3.16 µM
[24] = second compound 1 µM, first compound 10 µM
[25] = second compound 3.16 µM, first compound 0.0316 µM
[26] = second compound 3.16 µM, first compound 0.1 µM
[27] = second compound 3.16 µM, first compound 0.316 µM
[28] = second compound 3.16 µM, first compound 1 µM
[29] = second compound 3.16 µM, first compound 3.16 µM
[30] = second compound 3.16 µM, first compound 10 µM
[31] = second compound 10 µM, first compound 0.0316 µM
[32] = second compound 10 µM, first compound 0.1 µM
[33] = second compound 10 µM, first compound 0.316 µM
[34] = second compound 10 µM, first compound 1 µM
[35] = second compound 10 µM, first compound 3.16 µM
[36] = second compound 10 µM, first compound 10 µM
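Also: spheroids exposed to compounds for 7 days.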
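For viability, T/C in this document: 100% = DMSO vehicle control viability.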

## C=CCn1c(=O)c2cnc(Nc3ccc(N4CCN(C)CC4)cc3)nc2n1-c1cccc(C(C)(C)O)n1 + CN(C)c1ccc(Nc2c3ccc(NC(=O)CCN4CCCC4)cc3nc3cc(NC(=O)CCN4CCCC4)ccc23)cc1
Second compound 0.0316 µM
  IC50: 783 nM
Second compound 0.1 µM
  IC50: 707 nM
Second compound 0.316 µM
  IC50: < 31.6 nM
Second compound 1 µM
  IC50: < 31.6 nM
Second compound 3.16 µM
  IC50: < 31.6 nM
Second compound 10 µM
  IC50: < 31.6 nM
[1]
  viability, T/C: 105%
[2]
  viability, T/C: 86.5%
[3]
  viability, T/C: 87.6%
[4]
  viability, T/C: 40%
[5]
  viability, T/C: 21.3%
[6]
  viability, T/C: 23.7%
[7]
  viability, T/C: 106%
[8]
  viability, T/C: 99%
[9]
  viability, T/C: 66.8%
[10]
  viability, T/C: 45.5%
[11]
  viability, T/C: 24.1%
[12]
  viability, T/C: 27.5%
[13]
  viability, T/C: 39.8%
[14]
  viability, T/C: 38.4%
[15]
  viability, T/C: 36.4%
[16]
  viability, T/C: 15.2%
[17]
  viability, T/C: 16.5%
[18]
  viability, T/C: 9.97%
[19]
  viability, T/C: 3.15%
[20]
  viability, T/C: 2.55%
[21]
  viability, T/C: 3.78%
[22]
  viability, T/C: 2.12%
[23]
  viability, T/C: 1.52%
[24]
  viability, T/C: 1.18%
[25]
  viability, T/C: 0.41%
[26]
  viability, T/C: 0.2%
[27]
  viability, T/C: 0.36%
[28]
  viability, T/C: 0.19%
[29]
  viability, T/C: 0.51%
[30]
  viability, T/C: 0.13%
[31]
  viability, T/C: 0.13%
[32]
  viability, T/C: 0.12%
[33]
  viability, T/C: 0.54%
[34]
  viability, T/C: 0.29%
[35]
  viability, T/C: 0.16%
[36]
  viability, T/C: 0.14%

## O=C(NO)c1cnc(N2CCN(S(=O)(=O)c3ccc4ccccc4c3)CC2)nc1 + CN(C)c1ccc(Nc2c3ccc(NC(=O)CCN4CCCC4)cc3nc3cc(NC(=O)CCN4CCCC4)ccc23)cc1
Second compound 0.0316 µM
  IC50: 197 nM
Second compound 0.1 µM
  IC50: 215 nM
Second compound 0.316 µM
  IC50: < 31.6 nM
Second compound 1 µM
  IC50: < 31.6 nM
Second compound 3.16 µM
  IC50: < 31.6 nM
Second compound 10 µM
  IC50: < 31.6 nM
[1]
  viability, T/C: 101%
[2]
  viability, T/C: 73.7%
[3]
  viability, T/C: 35.6%
[4]
  viability, T/C: 0.61%
[5]
  viability, T/C: 0.11%
[6]
  viability, T/C: 0.11%
[7]
  viability, T/C: 86.7%
[8]
  viability, T/C: 80.1%
[9]
  viability, T/C: 34.8%
[10]
  viability, T/C: 0.74%
[11]
  viability, T/C: 0.22%
[12]
  viability, T/C: 0.38%
[13]
  viability, T/C: 44.2%
[14]
  viability, T/C: 37.8%
[15]
  viability, T/C: 10.6%
[16]
  viability, T/C: 0.25%
[17]
  viability, T/C: 0.08%
[18]
  viability, T/C: 0.21%
[19]
  viability, T/C: 3.24%
[20]
  viability, T/C: 1.83%
[21]
  viability, T/C: 0.75%
[22]
  viability, T/C: 0.1%
[23]
  viability, T/C: 0.06%
[24]
  viability, T/C: 0.31%
[25]
  viability, T/C: 0.23%
[26]
  viability, T/C: 0.4%
[27]
  viability, T/C: 0.28%
[28]
  viability, T/C: 0.06%
[29]
  viability, T/C: 0.08%
[30]
  viability, T/C: 0.1%
[31]
  viability, T/C: 0.07%
[32]
  viability, T/C: 0.12%
[33]
  viability, T/C: 0.38%
[34]
  viability, T/C: 0.34%
[35]
  viability, T/C: 0.29%
[36]
  viability, T/C: 0.15%

## CC1COCCN1c1cc(C2(S(C)(=N)=O)CC2)nc(-c2ccnc3[nH]ccc23)n1 (stereo unspecified) + Cc1[nH]c2ccc(F)cc2c1-c1nc2c3cccnc3c3ncccc3c2[nH]1
Second compound 0.0316 µM
  IC50: 1170 nM
Second compound 0.1 µM
  IC50: 1130 nM
Second compound 0.316 µM
  IC50: 1130 nM
Second compound 1 µM
  IC50: 749 nM
Second compound 3.16 µM
  IC50: < 31.6 nM
Second compound 10 µM
  IC50: < 31.6 nM
[1]
  viability, T/C: 97.5%
[2]
  viability, T/C: 97%
[3]
  viability, T/C: 87.4%
[4]
  viability, T/C: 55.4%
[5]
  viability, T/C: 18.6%
[6]
  viability, T/C: 9.09%
[7]
  viability, T/C: 103%
[8]
  viability, T/C: 100%
[9]
  viability, T/C: 87.7%
[10]
  viability, T/C: 53.6%
[11]
  viability, T/C: 21.1%
[12]
  viability, T/C: 10.5%
[13]
  viability, T/C: 97.2%
[14]
  viability, T/C: 75.4%
[15]
  viability, T/C: 86.2%
[16]
  viability, T/C: 51.6%
[17]
  viability, T/C: 21.9%
[18]
  viability, T/C: 10.2%
[19]
  viability, T/C: 78.2%
[20]
  viability, T/C: 76.6%
[21]
  viability, T/C: 75.6%
[22]
  viability, T/C: 41%
[23]
  viability, T/C: 18.9%
[24]
  viability, T/C: 9.88%
[25]
  viability, T/C: 21.5%
[26]
  viability, T/C: 15.3%
[27]
  viability, T/C: 17.2%
[28]
  viability, T/C: 13.9%
[29]
  viability, T/C: 10.2%
[30]
  viability, T/C: 6.81%
[31]
  viability, T/C: 46%
[32]
  viability, T/C: 49.4%
[33]
  viability, T/C: 36.5%
[34]
  viability, T/C: 22%
[35]
  viability, T/C: 14.5%
[36]
  viability, T/C: 8.3%
